Results reported in patent US20250163048A1 (Tango Therapeutics, Inc., priority 2022, published 2025).
Read-outs that look alike come from different tables or passages of the source.

Experiments:
[1] = tested on: HAP1 MTAP-intact cell line; test: SDMA in-cell western assay, HAP1 MTAP-intact
MTAP-deleted cell line = test: viability assay for the MTAP-deleted cell line; format: cell-based
[2] = tested on: HAP1 MTAP-deleted cell line; test: SDMA in-cell western assay, HAP1 MTAP-deleted; conditions: for Hap1 MTAP intact/deleted ratio: IC50 ratio between HAP1 MTAP-intact and HAP1 MTAP-deleted cell line
[3] = Homo sapiens, HAP1, read-out: Hap1 MTAP intact IC50, SDMA in-cell western assay, HAP1 MTAP-intact cell line
[4] = Homo sapiens, HAP1, viability assay
[5] = Homo sapiens, HAP1, read-out: Hap1 MTAP deleted IC50, SDMA in-cell western assay, HAP1 MTAP-deleted cell line
[6] = Homo sapiens, HAP1, read-out: Hap1 MTAP deleted IC90, SDMA in-cell western assay, HAP1 MTAP-deleted cell line
[7] = read-out: Hap1 MTAP intact IC50, SDMA in-cell western assay, HAP1 MTAP-intact cell line
[8] = Homo sapiens, HAP1, read-out: Hap1 MTAP intact IC50
[9] = viability assay, read-out: Hap1 MTAP deleted viability IC50
[10] = read-out: Hap1 MTAP deleted IC50, SDMA in-cell western assay, HAP1 MTAP-deleted cell line
[11] = read-out: Hap1 MTAP deleted IC90, SDMA in-cell western assay, HAP1 MTAP-deleted cell line
[12] = Homo sapiens, HAP1, read-out: Hap1 MTAP intact IC50, SDMA in-cell western, HAP1 MTAP-intact cell line
[13] = Homo sapiens, HAP1, read-out: Hap1 MTAP deleted IC50, SDMA in-cell western, HAP1 MTAP-deleted cell line
[14] = Homo sapiens, HAP1, read-out: Hap1 MTAP deleted IC90, SDMA in-cell western, HAP1 MTAP-deleted cell line

Row | SMILES | IC50 [1, 3] | IC50 (MTAP-deleted cell line; [4]) | IC50 [2, 5] | IC90 [2, 6] | Hap1 MTAP intact/deleted ratio ([2]; SDMA in-cell western assay) | further results
1 | Nc1ncc(NC(=O)C(=O)N2CCCCC2c2cccc(N3CCCC3)c2)c2[nH]ncc12 (single isomer, unassigned) [Compound 213] | > 50 nM | 100 to 1000 nM | 5 to 50 nM | > 125 nM | A (“A” indicates an IC50 ratio greater than or equal to 30 fold) | 
2 | C[C@H]1CC[C@H](C2CCCCO2)N(C(=O)C(=O)Nc2cnc(N)c3cn[nH]c23)C1 (single isomer, unassigned) [Compound 232] | > 50 nM | < 100 nM | < 5 nM | < 75 nM | A (“A” indicates an IC50 ratio greater than or equal to 30 fold) | 
3 | C[C@H]1CC[C@H]([C@@H]2CCOC2)N(C(=O)C(=O)Nc2cnc(N)c3cn[nH]c23)C1 (single isomer, unassigned) [Compound 237] | > 50 nM | 100 to 1000 nM | < 5 nM | > 125 nM | A (“A” indicates an IC50 ratio greater than or equal to 30 fold) | 
4 | CCN(C)c1cccc(C2CCCCN2C(=O)C(=O)Nc2cnc(N)c3cn[nH]c23)c1 (single isomer, unassigned) [Compound 251] | 5 to 50 nM | < 100 nM | < 5 nM | < 75 nM | B (“B” indicates an IC50 ratio greater than or equal to 15 fold but lower than 30 fold) | 
5 | CN(C)c1cccc(C2CCCCN2C(=O)C(=O)Nc2cnc(N)c3cn[nH]c23)c1 (single isomer, unassigned) [Compound 256] |  | 100 to 1000 nM | 5 to 50 nM | > 125 nM | A (“A” indicates an IC50 ratio greater than or equal to 30 fold) | IC50 [1, 7]: > 50 nM
6 | [2H]c1c([2H])c([2H])c([C@H]2CC[C@H](C)CN2C(=O)C(=O)Nc2cnc(N)c3cn[nH]c23)c([2H])c1[2H] (single isomer, unassigned) [Compound 268] |  | < 100 nM | < 5 nM | < 75 nM |  | IC50 [1, 8]: 5 to 50 nM
7 | Nc1ncc(NC(=O)C(=O)N2CCCCC2c2cccc(N3CCCC3)c2)c2[nH]ncc12 (single isomer, unassigned) [Compound 271] |  |  |  |  | A (“A” indicates an IC50 ratio greater than or equal to 30 fold) | IC50 [1, 7]: > 50 nM; IC50 (MTAP-deleted cell line; [9]): < 100 nM; IC50 [2, 10]: < 5 nM; IC90 [2, 11]: < 75 nM
8 | CN(C)c1cccc(C2CCCCN2C(=O)C(=O)Nc2cnc(N)c3cn[nH]c23)c1 (single isomer, unassigned) [Compound 283] |  |  |  |  | A (“A” indicates an IC50 ratio greater than or equal to 30 fold) | IC50 [1, 7]: 5 to 50 nM; IC50 (MTAP-deleted cell line; [9]): < 100 nM; IC50 [2, 10]: < 5 nM; IC90 [2, 11]: < 75 nM
9 | [2H]c1c([2H])c([2H])c([C@@H]2CC[C@H](C)CN2C(=O)C(=O)Nc2cnc(N)c3cn[nH]c23)c([2H])c1[2H] (single isomer, unassigned) [Compound 286] |  | 100 to 1000 nM | 5 to 50 nM | > 125 nM |  | IC50 [1, 8]: > 50 nM
10 | CC1OCc2c(NC(=O)C(=O)N3C[C@@H](C)CC[C@@H]3c3ccc4scnc4c3)cnc(N)c21 (single isomer, unassigned) [Compound 287] |  |  |  | < 75 nM | B (“B” indicates an IC50 ratio greater than or equal to 15 fold but lower than 30 fold) | IC50 [1, 8]: > 50 nM; IC50 (MTAP-deleted cell line; [9]): < 100 nM; IC50 [2, 10]: < 5 nM
11 | CC1OCc2c(NC(=O)C(=O)N3C[C@@H](C)CC[C@@H]3c3ccc4scnc4c3)cnc(N)c21 (single isomer, unassigned) [Compound 288] |  |  |  |  | B (“B” indicates an IC50 ratio greater than or equal to 15 fold but lower than 30 fold) | IC50 [1, 7]: > 50 nM; IC50 (MTAP-deleted cell line; [9]): > 1000 nM; IC50 [2, 10]: > 50 nM; IC90 [2, 11]: > 125 nM
12 | Nc1ncc(NC(=O)C(=O)N2CCCC[C@@H]2C2CCCC2)c2[nH]ncc12 (stereo in doubt) [Compound 127, N-(4-amino-1H-pyrazolo[4,3-c]pyridin-7-yl)-2-(2-cyclopentylpiperidin-1-yl)-2-oxoacetamide] |  | < 100 nM |  |  |  | IC50 [1, 12]: > 50 nM; IC50 [2, 13]: < 5 nM; IC90 [2, 14]: < 75 nM; Hap1 MTAP intact/deleted ratio ([2]; SDMA in-cell western): A (“A” indicates an IC50 ratio greater than or equal to 30 fold)
13 | C[C@@H]1CC[C@H](c2ccnn2C)N(C(=O)C(=O)Nc2cnc(N)c3cn[nH]c23)C1 (stereo in doubt) [Compound 272, N-(4-Amino-1H-pyrazolo[4,3-c]pyridin-7-yl)-2-oxo-2-[rac-(2R,5R)-5-methyl-2-(2-methylpyrazol-3-yl)-1-piperidyl]acetamide] | > 50 nM | 100 to 1000 nM | 5 to 50 nM | > 125 nM | B (“B” indicates an IC50 ratio greater than or equal to 15 fold but lower than 30 fold) | 
14 | CCn1nccc1[C@H]1CC[C@@H](C)CN1C(=O)C(=O)Nc1cnc(N)c2cn[nH]c12 (stereo in doubt) [Compound 285, N-(4-Amino-1H-pyrazolo[4,3-c]pyridin-7-yl)-2-oxo-2-[rac-(2R,5R)-2-(2-ethylpyrazol-3-yl)-5-methyl-1-piperidyl]acetamide] | > 50 nM | 100 to 1000 nM | 5 to 50 nM | > 125 nM | A (“A” indicates an IC50 ratio greater than or equal to 30 fold) | 
15 | C[C@H]1CC[C@H](c2ccc3sc(C4CCN(C)CC4)nc3c2)N(C(=O)C(=O)Nc2cnc(N)c3cnccc23)C1 [Compound 11, N-(1-amino-2,7-naphthyridin-4-yl)-2-((2R,5S)-5-methyl-2-(2-(1-methylpiperidin-4-yl)benzo[d]thiazol-5-yl)piperidin-1-yl)-2-oxoacetamide] |  | < 100 nM |  |  |  | IC50 [1, 12]: 5 to 50 nM; IC50 [2, 13]: < 5 nM; IC90 [2, 14]: < 75 nM; Hap1 MTAP intact/deleted ratio ([2]; SDMA in-cell western): C (“C” indicates an IC50 ratio of less than 15 fold)
16 | C[C@H]1CC[C@H](c2ccc3scnc3c2)N(C(=O)C(=O)Nc2cnc(N)c3cn[nH]c23)C1 [Compound 17, N-(4-amino-1H-pyrazolo[4,3-c]pyridin-7-yl)-2-[(2R,5S)-2-(1,3-benzothiazol-5-yl)-5-methyl-1-piperidyl]-2-oxo-acetamide] |  | < 100 nM |  |  |  | IC50 [1, 8]: 5 to 50 nM; IC50 [2, 13]: < 5 nM; IC90 [2, 14]: < 75 nM
17 | C[C@H]1CC[C@H](c2cc(F)c(F)c(F)c2)N(C(=O)C(=O)Nc2cnc(N)c3cn[nH]c23)C1 [Compound 18, N-(4-amino-1H-pyrazolo[4,3-c]pyridin-7-yl)-2-((2R,5S)-5-methyl-2-(3,4,5-trifluorophenyl)piperidin-1-yl)-2-oxoacetamide] |  | < 100 nM |  |  |  | IC50 [1, 12]: > 50 nM; IC50 [2, 13]: < 5 nM; IC90 [2, 14]: < 75 nM; Hap1 MTAP intact/deleted ratio ([2]; SDMA in-cell western): A (“A” indicates an IC50 ratio greater than or equal to 30 fold)
18 | C[C@H]1CC[C@H](c2ccc3sc(C4(O)CCN(C)CC4)nc3c2)N(C(=O)C(=O)Nc2cncc3cn[nH]c23)C1 [Compound 19, 2-((2R,5S)-2-(2-(4-hydroxy-1-methylpiperidin-4-yl)benzo[d]thiazol-5-yl)-5-methylpiperidin-1-yl)-2-oxo-N-(1H-pyrazolo[4,3-c]pyridin-7-yl)acetamide] |  | < 100 nM |  |  |  | IC50 [1, 8]: 5 to 50 nM; IC50 ([2]; Homo sapiens, HAP1, read-out: Hap1 MTAP deleted IC50): < 5 nM; IC90 ([2]; Homo sapiens, HAP1, read-out: Hap1 MTAP deleted IC90): < 75 nM; Hap1 MTAP intact/deleted ratio ([2]; SDMA in-cell western): C (“C” indicates an IC50 ratio of less than 15 fold)
19 | CC(CN(C)C)c1nc2cc([C@H]3CC[C@H](C)CN3C(=O)C(=O)Nc3cncc4cn[nH]c34)ccc2s1 (stereo partly drawn) [Compound 21, 2-((2R,5S)-2-(2-(1-(dimethylamino)propan-2-yl)benzo[d]thiazol-5-yl)-5-methylpiperidin-1-yl)-2-oxo-N-(1H-pyrazolo[4,3-c]pyridin-7-yl)acetamide] |  | < 100 nM |  |  |  | IC50 [1, 12]: 5 to 50 nM; IC50 [2, 13]: < 5 nM; IC90 [2, 14]: < 75 nM; Hap1 MTAP intact/deleted ratio ([2]; SDMA in-cell western): C (“C” indicates an IC50 ratio of less than 15 fold)
